Structures can show the parent of a compound that is named as a salt.
Columns and labels:
Assay type in all cases: in vivo, Sprague Dawley (SD) rats
[1] = Weight of rats with osteoarthritis induced by pMMx+ACLT; conditions: Duloxetine 5 mg/kg i.g. daily
Method: Male Sprague Dawley (SD) rats (Specific Pathogen Free grade; Shanghai Slac Laboratory Animal Co. Ltd) were obtained in the study. Each rat was weight at the start of treatment, with the average weight ranging from 200-220 grams. Upon arrival at the test facility, the animals were housed at five rats per cage and acclimated for five to seven days prior to initiation of treatment.
(§1) After acclimation of the animals, the animals were evaluated for normal pain threshold (on Day 1 of study) using the Von Frey, or Up-Down, method, and for biped balance degree of the knee joint on the surgical side (right hind limb) using a biped balance tester. The rats were then anesthetized with isoflurane, and the knee joints were depilated and disinfected. Osteoarthritis was induced in the animals by partial medial meniscectomy in combination with anterior cruciate ligament transection (pMMx+ACLT). Briefly, the skin and joint cavity close to the inner side of the right knee were cut, the knee joint was placed in the maximum flexion state, with the joint cavity exposed and the medial meniscus separated. The medial ⅓ meniscus and the anterior cruciate ligament were then cut-off. For the control animal group (no osteoarthritis induction), only the skin was cut to open the joint cavity without removing the ligament or meniscus. The date of the osteoarthritis model establishment was Day 8 of the study.
(§2) One week after model establishment (Day 15 of study), before administration of treatment, the basic pain threshold of plantar pain was evaluated on the operation side for each of the animals, and the osteoarthritis model rats were evenly divided according to the basic Von Frey reaction value (2-5), with 8 animals used for each of the osteoarthritis model group (vehicle-treatment), the positive control drug (duloxetine) 5 mg/kg group, and the ALMB-0166 15 mg/kg, 25 mg/kg, and 50 mg/kg dose groups. After grouping, drug treatment was started on Day 15 of study. For each of the ALMB-0166-treated test groups, the treatment was administered intravenously, once a week, with four total doses (on Day 15, 22, 29, and 36 of the study, corresponding to day 1, 8, 15 and 22 of treatment). For the positive control group, duloxetine was administered orally every day until the end of the experimental cycle.
(§3) Weight measurements were taken for animals in each test group on Days 15, 22, 29 and 36 of the study. On Days 16, 23, 30 and 37, the gait of each animal, the change of plantar pain threshold induced by knee joint lesions on the operative side, and the weight bearing of both lower limbs were measured for each animal was scored on according to the Coderre scoring method, the Up-Down method, and bipedal balance pain testing, respectively.

[2] = system: rats with osteoarthritis induced by pMMx+ACLT; assay: Gait score (Coderre scoring method) in pMMx+ACLT osteoarthritis rat model; conditions: for Gait Score: Duloxetine 5 mg/kg i.g. daily
Method: as §1, §2, §3
Coderre gait method was used to measure the gait of each animal. The gait was measured according to the following scoring: standard (Grade 0: normal walking, 0 point); Level 1 (sight claudication, slight bending below knee joint, 2 points); Level 2 (claudication, the affected limb can touch the ground, 4 points); Level 3 (severe claudication, the affected limb leaves the ground and walk on three feet, 6 points).
(§4) The gait scoring, plantar pain threshold, and weight bearing differential were expressed as the mean and […] (Mean±SD). The data between model group and administration group at multiple time points were analyzed by repeated measures analysis of variance method with SPSS Statistics 21 software, and Tamhane's method for subsequent analysis. P<0.05 was considered to have a significant difference, and p<0.01 was considered to have a very significant difference. The final data were plotted with GraphPad Prism 6 software.

[3] = system: rats with osteoarthritis induced by pMMx+ACLT; assay: Mechanical pain threshold of plantar pain (Von Frey Up-Down method, 50% MWT) in pMMx+ACLT osteoarthritis rat model; conditions: for Percent Increase in 50% MWT (g) (as compared to Day 15 of study) / Pain threshold of plantar pain, 50% MWT: Duloxetine 5 mg/kg i.g. daily
Method: as §1, §2, §3
The Up-Down method was used to measure the plantar pain threshold. Following the Up-Down methos, each rat was placed in a transparent enclosure with a sieve-shaped metal plate at the bottom, and the animal was allowed to adapt to about 15 minutes until the autonomous exploration and grooming activities stop. Von Frey probes were then used to vertically stimulate the middle of the hind plantar of each rat to make the plantar slightly s-shaped for 5 second, and the paw withdrawal response was observed. A positive response was noted if the paw was sharply withdrawn or there was flinching upon removal. The interval between each measurement was about 10 sec. If no response was observed after probe stimulation, it was regarded as a negative reaction.
For scoring the mechanical pain, the rats were stimulated with a series of Von Frey probes of 0.4, 0.6, 1, 1.4, 2, 4, 6, 8, 10, and 15 g). Testing was start with a 2 g probe, and if a positive reaction occurred, it was recorded as an “X,” and testing was continued with a 1.4 g probe. […] Testing was continued accordingly, using the probes successively without circumvention. […] If a positive reaction was induced even by the 0.4 g probe, the 50% MWT was recorded as 0.4 g. […]

[4] = system: rats with osteoarthritis induced by pMMx+ACLT; assay: Weight bearing difference of hind legs (biped balance measurement) in pMMx+ACLT osteoarthritis rat model; conditions: for Weight bearing difference of hind legs: Duloxetine 5 mg/kg i.g. daily
Method: as §1, §2, §3
A bipedal balance pain tester was used to evaluate the weight bearing of both lower limbs for each animal. Each animal was placed in the plexiglass cover of the biped balance pain instrument. After the animal completed their exploratory behavior, the forelimbs of the rats laid on the incline of the device, and the hind limbs stood on the left and right balance plates respectively. […] The measurements were repeated three times for each animal, with an interval of 10 seconds between each replicate measurement.
as §4

[5] = Day 1 (before model establishment)
[6] = duloxetine 5 mg/kg, multivariate test, p<0.05

## CNCC[C@H](Oc1cccc2ccccc12)c1cccs1 [Duloxetine, Duloxetine hydrochloride]
[1]; Day 1 of study (before treatment)
  Weight: 223.8 ± 7.8 g
[1]; Day 8 of study (model establishment, before treatment)
  Weight: 280.1 ± 11.2 g
[1]; Day 15 of study (treatment start)
  Weight: 317.8 ± 20.4 g
[1]; Day 22 of study
  Weight: 353.9 ± 23.0 g
[1]; Day 29 of study
  Weight: 389.9 ± 26.2 g
[1]; Day 36 of study
  Weight: 423.0 ± 30.0 g
[2]; Day 16 of study
  Gait Score: 3.5 ± 0.9
[2]; Day 23 of study
  Gait Score: 3.0 ± 1.1
[2]; Day 30 of study
  Gait Score: 1.3 ± 1.0
[2]; Day 37 of study
  Gait Score: 0.0 ± 0.0
[2]; duloxetine 5 mg/kg, multivariate test, p>0.05
  Gait score compared to the vehicle-treated group: no significant different
[3]; Day 1
  Percent Increase in 50% MWT (g) (as compared to Day 15 of study): 0.0%
[3]; [5]
  Pain threshold of plantar pain, 50% MWT: 15.00 ± 0.00 g
[3]; Day 15
  Percent Increase in 50% MWT (g) (as compared to Day 15 of study): 0.7%
[3]; Day 15 (before administration of treatment)
  Pain threshold of plantar pain, 50% MWT: 3.23 ± 0.64 g
[3]; Day 16
  Pain threshold of plantar pain, 50% MWT: 5.27 ± 2.72 g
  Percent Increase in 50% MWT (g) (as compared to Day 15 of study): 52.9%
[3]; Day 23
  Pain threshold of plantar pain, 50% MWT: 7.11 ± 2.45 g
  Percent Increase in 50% MWT (g) (as compared to Day 15 of study): 90.3%
[3]; Day 29
  Pain threshold of plantar pain, 50% MWT: 8.47 ± 4.92 g
[3]; Day 30
  Percent Increase in 50% MWT (g) (as compared to Day 15 of study): 108.2%
[3]; Day 37
  Pain threshold of plantar pain, 50% MWT: 9.84 ± 4.65 g
  Percent Increase in 50% MWT (g) (as compared to Day 15 of study): 70.9%
[3]; [6]
  Pain threshold of plantar pain over time compared with osteoarthritis model (vehicle-treated) group: significant increase
[3]; duloxetine dosage group, Days 23, 30 and 37 of the study, p<0.05
  Pain threshold of plantar pain at each time point: significantly increased
[4]; [5]
  Weight bearing difference of hind legs: 2.96 ± 1.88 g
[4]; Day 15 (treatment start)
  Weight bearing difference of hind legs: 104.28 ± 11.40 g
[4]; Day 16
  Weight bearing difference of hind legs: 95.60 ± 2.27 g
[4]; Day 23
  Weight bearing difference of hind legs: 80.91 ± 1.98 g
[4]; Day 30
  Weight bearing difference of hind legs: 56.80 ± 4.06 g
[4]; Day 37
  Weight bearing difference of hind legs: 51.12 ± 4.81 g
[4]; [6]
  Decrease in hind limb weight bearing difference over time compared with osteoarthritis model (vehicle-treated) group: significant
[4]; duloxetine test group, Days 16, 23, 30 and 37, p<0.01
  Hind limb weight bearing difference at each time point: significant decrease
